Patent US10913745B2, “Octahydro-pyrrolo[3,4-c]-pyrrole derivatives and analogs thereof as autotaxin inhibitors” (Hoffmann-La Roche Inc., priority 2013, dated 2021)

Molecular target: ATX (human His-tagged) (Homo sapiens (Human), UniProt Q13822)
Test: Human ATX enzyme inhibition assay (fluorescence quenching, MR121 substrate)
Assay type: biochemical
Conditions: MR121 substrate 1 μM, ATX 30 nM final, 30° C.
Method: Human ATX Enzyme Inhibition Assay
ATX inhibition was measured by a fluorescence quenching assay using a specifically labeled substrate analogue (MR121 substrate). To obtain this MR121 substrate, BOC and TBS protected 6-amino-hexanoic acid (R)-3-({2-[3-(2-{2-[2-(2-amino-ethoxy)-ethoxy]-ethoxy}-ethoxy)-propionylamino]-ethoxy}-hydroxy-phosphoryloxy)-2-hydroxy-propyl ester (Ferguson et al., Org Lett 2006, 8 (10), 2023) was labeled with MR121 fluorophore (CAS 185308-24-1, 1-(3-carboxypropyl)-11-ethyl-1,2,3,4,8,9,10,11-octahydro-dipyrido[3,2-b:2′,3′-i]phenoxazin-13-ium) on the free amine of the ethanolamine side and then, after deprotection, subsequently with tryptophan on the side of the aminohexanoic acid. Assay working solutions were made as follows: Assay buffer (50 mM Tris-HCl, 140 mM NaCl, 5 mM KCl, 1 mM CaCl2, 1 mM MgCl2, 0.01% Triton-X-100, pH 8.0; ATX solution: ATX (human His-tagged) stock solution (1.08 mg/mL in 20 mM bicine, pH 8.5, 0.15 M NaCl, 10% glycerol, 0.3% CHAPS, 0.02% NaN3), diluted to 1.4-2.5× final concentration in assay buffer; MR121 substrate solution: MR121 substrate stock solution (800 μM MR121 substrate in DMSO), diluted to 2-5× final concentration in assay buffer. Test compounds (10 mM stock in DMSO, 8 μL) were obtained in 384 well sample plates (Corning Costar #3655) and diluted with 8 μL DMSO. Row-wise serial dilutions were made by transferring 8 μL cpd solution to the next row up to row O. The compound and control solutions were mixed five times and 2 μL were transferred to 384 well assay plates (Corning Costar #3702). Then, 15 μL of 41.7 nM ATX solution was added (30 nM final concentration), mixed five times and then incubated for 15 minutes at 30° C. 10 μL of MR121 substrate solution was added (1 μM final concentration), mixed 30 times and then incubated for 15 minutes at 30° C.

SMILES	IC50
NS(=O)(=O)c1ccc(C(=O)N2C[C@H]3CCN(C(=O)OCc4cc(Cl)cc(Cl)c4)C[C@@H]3C2)cc1 (racemic) [Example 1.03, trans-3,5-dichlorobenzyl 2-(4-sulfamoylbenzoyl)hexahydro-1H-pyrrolo[3,4-c]pyridine-5(6H)-carboxylate]	7 nM
NS(=O)(=O)c1ccc(C(=O)N2C[C@H]3CCN(C(=O)OCc4cc(Cl)cc(Cl)c4)C[C@@H]3C2)cc1 (single isomer, unassigned) [Example 9A, (−)-trans-3,5-Dichlorobenzyl 2-(4-sulfamoylbenzoyl)hexahydro-1H-pyrrolo[3,4-c]pyridine-5(6H)-carboxylate]	4 nM
NS(=O)(=O)c1ccc(C(=O)N2C[C@H]3CCN(C(=O)OCc4cc(Cl)cc(Cl)c4)C[C@@H]3C2)cc1 (single isomer, unassigned) [Example 9B, (+)-trans-3,5-dichlorobenzyl 2-(4-sulfamoylbenzoyl)hexahydro-1H-pyrrolo[3,4-c]pyridine-5(6H)-carboxylate]	5 nM
CNS(=O)(=O)c1ccc(C(=O)N2C[C@H]3CN(C(=O)OCc4cc(Cl)cc(Cl)c4)C[C@H]3C2)cc1 [Example 1, (3aR,6aS)-3,5-Dichlorobenzyl 5-(4-(N-methylsulfamoyl)benzoyl)hexahydropyrrolo[3,4-c]pyrrole-2(1H)-carboxylate]	1160 nM
O=C(OCc1cc(Cl)cc(Cl)c1)N1C[C@@H]2CN(C(=O)c3ccc(O)cn3)C[C@@H]2C1 [Example 1.01, (3aR,6aS)-3,5-dichlorobenzyl 5-(5-hydroxypicolinoyl)hexahydropyrrolo[3,4-c]pyrrole-2(1H)-carboxylate]	293 nM
O=C(OCc1cc(Cl)cc(Cl)c1)N1C[C@@H]2CN(C(=O)c3ccc(O)cc3)C[C@@H]2C1 [Example 1.02, (3aR,6aS)-3,5-dichlorobenzyl 5-(4-hydroxybenzoyl)hexahydropyrrolo[3,4-c]pyrrole-2(1H)-carboxylate]	444 nM
NS(=O)(=O)c1ccc(C(=O)N2C[C@H]3CN(C(=O)OCc4cc(Cl)cc(Cl)c4)C[C@H]3C2)s1 [Example 1.04, (3aR,6aS)-3,5-dichlorobenzyl 5-(5-sulfamoylthiophene-2-carbonyl)hexahydropyrrolo[3,4-c]pyrrole-2(1H)-carboxylate]	8 nM
NS(=O)(=O)c1ccc(C(=O)N2C[C@H]3CN(C(=O)OCc4cc(Cl)cc(Cl)c4)C[C@H]3C2)cc1 [Example 1.05, (3aR,6aS)-3,5-dichlorobenzyl 5-(4-sulfamoylbenzoyl)hexahydropyrrolo[3,4-c]pyrrole-2(1H)-carboxylate]	4 nM
Nc1ccc(C(=O)N2C[C@H]3CN(C(=O)OCc4cc(Cl)cc(Cl)c4)C[C@H]3C2)cc1 [Example 1.06, (3aR,6aS)-3,5-dichlorobenzyl 5-(4-aminobenzoyl)hexahydropyrrolo[3,4-c]pyrrole-2(1H)-carboxylate]	255 nM
Nc1ccc(C(=O)N2C[C@H]3CN(C(=O)OCc4cc(Cl)cc(Cl)c4)C[C@H]3C2)nc1 [Example 1.07, (3aR,6aS)-3,5-dichlorobenzyl 5-(5-aminopicolinoyl)hexahydropyrrolo[3,4-c]pyrrole-2(1H)-carboxylate]	6110 nM
N#Cc1ccc(C(=O)N2C[C@H]3CN(C(=O)OCc4cc(Cl)cc(Cl)c4)C[C@H]3C2)cc1 [Example 1.08, (3aR,6aS)-3,5-dichlorobenzyl 5-(4-cyanobenzoyl)hexahydropyrrolo[3,4-c]pyrrole-2(1H)-carboxylate]	1200 nM
COC(=O)c1ccc(C(=O)N2C[C@H]3CN(C(=O)OCc4cc(Cl)cc(Cl)c4)C[C@H]3C2)cc1 [Example 1.09, (3aR,6aS)-3,5-dichlorobenzyl 5-(4-(methoxycarbonyl)benzoyl)hexahydropyrrolo[3,4-c]pyrrole-2(1H)-carboxylate]	118 nM
